The source of these data is patent US7838562B2, “Methods of inhibiting vascular permeability and apoptosis” (University of Connecticut, priority 2004, dated 2010).

Each structure is given as a SMILES string.

In test [1] the test system is kinase activity present in HUVEC (sphingosine kinase). Briefly: in vitro kinase assay with total cell extract from HUVEC. Particulars: HUVEC total cell extract; 100 μM FTY720 or AAL, 20 μM sphingosine; 30 minutes. The format is biochemical, human. How it is done: To confirm that FTY720 and (R)-AAL are phosphorylated by endothelial cells, an in vitro kinase assay was performed with both total cell extract and conditioned medium from HUVEC. […] Cells were scraped at 4° C. with 400 μl of 25 mM HEPES pH 7.5, […], 1× protease inhibitor mixture, and disrupted by brief sonication. Cellular homogenates were centrifuged for 10 minutes, 4° C. at 20,000×g. In the kinase assay, 300 μl of conditioned medium (derived from 5×10^5 cells for 3 hours of incubation) or 10 μg of total cell extract from HUVEC were used as a source of kinase activity. […] Lipids were extracted and samples were resuspended in 50 μl of chloroform. Lipids were resolved by TLC on Silica Gel G60 using 1-butanol/acetic acid/water (60/20/20 volume/volume) buffer and quantified with a PhosphorImager (Molecular Dynamics).

The next test has as its system VE-cadherin. Put plainly: VE-cadherin localization by immunofluorescence in HUVEC. The format is cell-based, human. To be noted: 30 minutes; 10 nM (S1P 100 nM). As for the experimental part: The effects of FTY720-P and (R)-AFD on the localization of VE-cadherin were studied using immunofluorescence analysis. In this study, 2×10^5 cells were plated in 35 millimeter glass bottom petri dishes. Three days later, the cells were washed and serum starved for 3 hours before treatments. Then, the cells were washed with ice-cold PBS, fixed, and immunofluorescence analysis with VE-cadherin antibody was conducted (1 μg/ml Santa Cruz). The primary antibody staining was visualized with Rhodamine-conjugated goat anti-mouse (1:1000, Cappel) IgG. Confocal microscopy was conducted on a Zeiss LSM 510 laser-scanning confocal microscope. Rhodamine fluorescence was excited using a 543 nm Helium/Neon laser and emitted fluorescence was detected with a […] long-pass filter.

In test [2] the test system is VEGF-induced vascular permeability. Briefly: mouse ear microvascular permeability assay (VEGF-induced). The format is in vivo, FVB/N mice. Particulars: mice, single oral administration (gavage, 50 μg) 5 hours prior. As for the experimental part: The role of plasma borne FTY720-P or (R)-AFD in the regulation of vascular permeability was tested in vivo. In order to test this possibility, an in vivo vascular permeability model was used in FTY720, (R)-AFD or (S)-AAL-pretreated mice. […] Five hours post-gavage, animals were anesthetized with 2% Avertin™ (0.5 cc/20 g) and infused through the tail vein with 100 μl FITC-dextran (5 mg/ml, 165 kDa). Animals were placed on a warming table under a fluorescent dissecting microscope (Zeiss STV11, Zeiss, Inc.) and the central vessels in the ear were imaged. Control saline or mouse vascular endothelial growth factor (mVEGF, 10 ng/ml) was injected subdermally into the middle ear using a 30 gauge needle (30 μl). Ear vasculature was then imaged with fixed exposure times in a stationary position from 5 minutes to 120 minutes post-injection. Fluorescence images were then quantified using pixel-based threshold in ImageProPlus (Media Cybernetics, Inc.) and quantified.

The target of a further test is T1, SK2 (Mus musculus, UniProt Q9JIA7).
T1 sequence (Q9JIA7 1-617): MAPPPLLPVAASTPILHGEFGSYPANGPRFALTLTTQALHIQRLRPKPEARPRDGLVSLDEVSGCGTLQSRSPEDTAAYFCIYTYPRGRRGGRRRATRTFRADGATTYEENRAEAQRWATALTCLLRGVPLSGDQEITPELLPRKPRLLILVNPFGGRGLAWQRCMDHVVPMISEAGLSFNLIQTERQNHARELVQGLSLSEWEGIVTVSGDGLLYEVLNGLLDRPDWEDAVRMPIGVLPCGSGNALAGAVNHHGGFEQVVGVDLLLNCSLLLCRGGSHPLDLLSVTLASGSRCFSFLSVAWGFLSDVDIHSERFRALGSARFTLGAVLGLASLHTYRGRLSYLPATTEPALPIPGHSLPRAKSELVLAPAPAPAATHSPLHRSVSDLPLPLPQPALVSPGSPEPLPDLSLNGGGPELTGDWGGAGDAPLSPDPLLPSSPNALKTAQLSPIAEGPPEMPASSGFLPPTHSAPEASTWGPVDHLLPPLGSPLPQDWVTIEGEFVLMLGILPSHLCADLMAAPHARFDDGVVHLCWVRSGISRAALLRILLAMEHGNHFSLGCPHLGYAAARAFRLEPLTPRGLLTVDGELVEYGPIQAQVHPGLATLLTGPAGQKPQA
Particulars: SK2-[…]T; 100 μM FTY720 or (R)-AAL, 20 μM sphingosine.

For another test, the system named is HUVEC. Put plainly: HUVEC migration (96 well chemotaxis microchamber). To be noted: for migration induced by conditioned medium: compound incubated with HUVEC for 3 hours, conditioned medium used as chemoattractant; for induction of endothelial cell migration: compound used directly as chemoattractant, 4 hours.
In the next test the target is SK1 (Mus musculus, UniProt Q8CI15). Particulars: SK1-293T; 20 μM sphingosine.
Chain of SK1 (Q8CI15 1-388 isoform Q8CI15-2): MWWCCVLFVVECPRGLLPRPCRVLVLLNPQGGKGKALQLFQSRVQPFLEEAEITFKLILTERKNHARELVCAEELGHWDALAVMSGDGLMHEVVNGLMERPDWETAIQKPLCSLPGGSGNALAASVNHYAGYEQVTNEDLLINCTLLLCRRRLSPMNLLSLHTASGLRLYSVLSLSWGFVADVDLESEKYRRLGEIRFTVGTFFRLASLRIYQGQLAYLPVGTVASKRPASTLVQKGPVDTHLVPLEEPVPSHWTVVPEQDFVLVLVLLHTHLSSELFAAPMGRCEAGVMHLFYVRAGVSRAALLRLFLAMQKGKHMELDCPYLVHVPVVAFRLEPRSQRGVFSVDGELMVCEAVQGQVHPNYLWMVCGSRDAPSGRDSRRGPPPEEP
The next test has as its system phospho-Akt. Put plainly: Western blot of Akt phosphorylation in HUVEC. Format: cell-based, human. To be noted: 5 minute stimulation. An excerpt:
(§1) Endothelial cell morphogenesis, a phenomenon that requires endothelial cell migration, survival and adherens junction assembly, is mediated by the ligand-dependent activation of S1P1 and S1P3 receptors. […] The effects of FTY720-P and analogs on Akt and ERK phosphorylation in HUVEC were studied in a Western blot analysis. Confluent cultures of HUVEC cells were serum starved for two hours in 0.1% ffa-BSA M199 before treatments. Then, they were washed with ice-cold phosphate buffered saline (PBS) containing 1 mM sodium fluoride and 1 mM sodium orthovanadate and homogenized in radioimmunoprecipitation assay buffer (0.1% sodium dodecyl sulfate (SDS), 0.5% sodium deoxycholate, 1% NP-40, 1 mM sodium orthovanadate, 50 mM β-glycerophosphate and 1× protease inhibitor cocktail). Samples were centrifuged 10,000×g for 10 minutes, and protein concentrations of supernatants were determined by Bradford assay (BioRad Protein Dye Reagent). Equal amounts of protein were separated on a 10% polyacrylamide gel and blotted to a nitrocellulose membrane. Immunoblot analysis was performed using Phospho-Akt, Akt, phospho-ERK1/2 or ERK-1/2 antibodies.

Another test concerns phospho-ERK-1/2. Briefly: Western blot of ERK-1/2 phosphorylation in HUVEC. Format: cell-based, human. Particulars: 5 minute stimulation.
Description: as §1

Take `CCCCCCCOc1ccc(CC[C@@](C)(N)CO)cc1` [(R)-AAL, 2-amino-2-methyl-4-[4-heptoxy-phenyl]butane-1-ol]: the results for the “specific activity (phosphorylation of the substrate)” value (“specific activity” for short) (in test [1]; on SK2) were 15 ± 0.93 pmol/mg/min and 199.5 pmol/min/mg, respectively. Also, the “VE-cadherin localization at cell-cell contact regions / translocation to adherens junctions” value in the test on VE-cadherin is “did not induce VE-cadherin translocation to the adherens junctions”. Further, the “inhibition of vascular permeability induced by VEGF” value in test [2] was “potently inhibited vascular permeability in vivo”. The “migration induced by conditioned medium” value in the test on HUVEC is on record as “activated into potent chemoattractants for endothelial cells”. Moreover, the “induction of endothelial cell migration” value in the test with HUVEC is on record as “Neither FTY720 nor its structural analog (R)-AAL induced endothelial cell migration”.
Consider `CCCCCCCCCCCCC/C=C/[C@@H](O)[C@@H](N)CO` [sphingosine, Sphingosine], for which the “specific activity” value in test [1] was 75.7 ± 6 pmol/mg/min; at SK1 it was 48.1 pmol/mg/min; on SK2, 319.9 pmol/min/mg.
Consider `CCCCCCCCc1ccc(CCC(N)(CO)CO)cc1` [FTY720, 2-amino-2-[2-(4-octaphenyl)ethyl]propane-1,3 diol, reference compound], for which the “specific activity” value in test [1] is 3.85 ± 0.75 pmol/mg/min. The “Akt phosphorylation (in words)” value with phospho-Akt is “did not induce phospho-Akt or phospho-ERK-1/2 levels”. For the same compound, the “ERK-1/2 phosphorylation (in words)” value with phospho-ERK-1/2 is on record as “did not induce phospho-Akt or phospho-ERK-1/2 levels”. In the test with VE-cadherin, the “VE-cadherin localization at cell-cell contact regions / translocation to adherens junctions” value was “did not induce VE-cadherin translocation to the adherens junctions”. In addition, in test [2], the “inhibition of vascular permeability induced by VEGF” value was “profoundly suppressed vascular permeability induced by VEGF”. In addition, the “specific activity” value on SK2 stood at 41.6 pmol/min/mg. In the test on HUVEC, the “migration induced by conditioned medium” value was “activated into potent chemoattractants for endothelial cells” and the “induction of endothelial cell migration” value is “Neither FTY720 nor its structural analog (R)-AAL induced endothelial cell migration”.
